Test results as given in patent US7884127B2, “Inhibitors of cyclin dependent kinases and their use” (Pirimal Life Sciences Ltd., priority 2002, dated 2011).
Structures can show the parent of a compound that is named as a salt.

Tests used:
[1] = tested on: U-937 Histiocytic lymphoma (monocytes); test: Cytotoxicity assay (MTS), U-937; type: cell-based, human
Protocol: (§1) In Vitro Cell Proliferation and Cytotoxicity Assays:
(§2) Exponentially growing cultures of ten human cancerous cell lines (HL-60 Promyelocytic Leukemia, PC-3 Prostate, H-460 Lung, MDA-MB-231 Breast, MCF-7 Breast, HeLa Cervix, Colo-205 Colon, H9 Lymphoma (T Cells), U-937 Histiocytic Lymphoma (monocytes) and CaCO-2 Colon) obtained from NCCS, Pune, India were used. The in vitro cell proliferation (NCI, USA protocol) and cytotoxicity assays were carried out using standard procedures viz. ^3H-Thymidine uptake and MTS assay, respectively (For ^3H-Thymidine uptake: Cell Biology, A Laboratory Handbook, 1998, Vol 1 Ed Julio E. Celis, and For MTS assay: Promega Protocol, USA, 2000). In the ^3H-Thymidine uptake assay, cells were harvested after 72 hours onto GF/B unifilter plates (Packard, USA) using a Packard Filtermate Universal harvester and the plates were counted on a Packard TopCount 96-well liquid scintillation counter. The concentration of compound at which 50% of proliferative activity was inhibited (IC50) and the degree of toxicity of compound were calculated for representative compounds and their pharmaceutically acceptable salts described in the Examples.

HeLa Cervix [2] = test: Cytotoxicity assay (MTS), HeLa; type: cell-based, human
Protocol: as §1, §2

H460 Lung [3] = test: Cytotoxicity assay (MTS), H460; type: cell-based, human
Protocol: as §1, §2

[4] = tested on: U-937 Histiocytic lymphoma (monocytes); test: In vitro cell proliferation assay (3H-Thymidine uptake), U-937; type: cell-based; details: Homo sapiens, 72 hours
Protocol: as §1, §2

HeLa Cervix [5] = test: In vitro cell proliferation assay (3H-Thymidine uptake), HeLa; type: cell-based; details: Homo sapiens, 72 hours
Protocol: as §1, §2

H460 Lung [6] = test: In vitro cell proliferation assay (3H-Thymidine uptake), H460; type: cell-based; details: Homo sapiens, NCI-H460, 72 hours
Protocol: as §1, §2

PC-3 Prostate [7] = test: In vitro cell proliferation assay (3H-Thymidine uptake), PC-3; type: cell-based; details: Homo sapiens, 72 hours
Protocol: as §1, §2

PC-3 Prostate [8] = test: Cytotoxicity assay (MTS), PC-3; type: cell-based, human
Protocol: as §1, §2

MDAMB-231 Breast [9] = test: In vitro cell proliferation assay (3H-Thymidine uptake), MDA-MB-231; type: cell-based; details: Homo sapiens, 72 hours
Protocol: as §1, §2

MCF-7 Breast [10] = test: Cytotoxicity assay (MTS), MCF-7; type: cell-based, human
Protocol: as §1, §2

MCF-7 Breast [11] = test: In vitro cell proliferation assay (3H-Thymidine uptake), MCF-7; type: cell-based; details: Homo sapiens, MCF7, 72 hours
Protocol: as §1, §2

MDAMB-231 Breast [12] = test: Cytotoxicity assay (MTS), MDA-MB-231; type: cell-based, human
Protocol: as §1, §2

human Cdk-4/D1 = molecular target: T1, human Cdk-4/D1 (Homo sapiens, UniProt P11802); test: Cdk4/Cyclin D1 kinase assay; type: biochemical; details: for IC50: phosphorylation of GST-Rb, 32P-ATP filter plate, 30 min at 30° C.; for Ratio of IC50 Cdk2/E:Cdk4/D1: selectivity, Cdk2/E IC50 over Cdk4/D1 IC50
T1 construct: made in house; host or cells: Sf9 insect cells (baculovirus)
T1 sequence (P11802 whole entry): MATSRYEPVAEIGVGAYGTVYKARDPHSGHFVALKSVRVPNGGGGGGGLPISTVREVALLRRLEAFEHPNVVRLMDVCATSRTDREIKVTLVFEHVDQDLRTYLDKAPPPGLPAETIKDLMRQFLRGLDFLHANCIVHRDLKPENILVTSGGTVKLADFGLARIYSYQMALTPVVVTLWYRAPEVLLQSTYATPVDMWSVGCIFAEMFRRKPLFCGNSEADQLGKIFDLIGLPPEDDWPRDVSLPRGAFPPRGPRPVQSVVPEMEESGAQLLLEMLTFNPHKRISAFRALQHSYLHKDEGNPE
T1 sequence (P24385 whole entry partner): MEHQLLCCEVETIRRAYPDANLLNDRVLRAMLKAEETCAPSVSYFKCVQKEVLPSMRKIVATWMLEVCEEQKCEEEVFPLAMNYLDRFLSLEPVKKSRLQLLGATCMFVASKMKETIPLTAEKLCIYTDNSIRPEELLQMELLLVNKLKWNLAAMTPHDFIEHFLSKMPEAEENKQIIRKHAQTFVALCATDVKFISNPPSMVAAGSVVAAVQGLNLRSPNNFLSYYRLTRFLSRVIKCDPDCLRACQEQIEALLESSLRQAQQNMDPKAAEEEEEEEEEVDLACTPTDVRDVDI
Source text: (§3) Cdk4/Cyclin D1 Kinase Assay and Cdk2/Cyclin E Kinase Assay
(§4) The assays measure phosphorylation of retinoblastoma protein (Rb) by Cdk4 or Cdk2 upon activation by cyclin D1 or cyclin E, respectively, through the transfer of (γ^32P)-phosphate from γ^32P-ATP in a 96-well filter plate assay.
(§5) Cdk4 or Cdk2 was co-expressed with cyclin D1 or cyclin E, respectively, by a baculovirus expression system in insect cells. For this, 1×10^7 Sf9 cells were coinfected with baculoviruses containing human Cdk-4 or 2 and cyclin D1 or E genes and after 72 hours cells were lysed in 500 μl of a lysis buffer (50 mM HEPES (pH 7.5), 10 mM MgCl2, 1 mM DTT, 5 μg/ml of aprotinin, 5 μg/ml of leupeptin, 0.1 mM NaF, 0.2 mM phenylmethylsulfonyl fluoride (PMSF), and sodium orthovanadate). Centrifuged lysate was purified on a GST-sepharose column. Purity of the proteins was checked by SDS-PAGE followed by western blots using specific antibodies (Santacruz Biotec, USA) to Cdk4 or Cdk2.
GST-retinoblastoma (Rb) (aa 776-928) fusion protein is expressed in the bacteria E. coli and purified by GSH-Sepharose affinity chromatography. The GST-Rb bound to these beads served as the substrate in the assay.
(§6) Quantitation was by scintillation detection of (^32P)-GST-Rb in 96-well filter plates using Top Count scintillation 96-well counter (Packard, USA).
The Cdk 4 or Cdk 2 enzyme assay was run in 96-well format using Millipore Multiscreen filtration plates. All assay steps took place in a single filter plate (Unifilter plates, Packard, USA). The filtration wells were pre-wet with kinase buffer (100 μl/well) and the solution was then removed by the application of vacuum, with the filter plate on a vacuum manifold and the vacuum on. 50 μl of GST-Rb bound to GSH-Sepharose beads in kinase buffer (0.5 μg GST-Rb/50 μl) was added to each well and vacuum was applied to removed the buffer. A further 25 μl of a reaction mix containing ATP (cold+hot) and phosphatase inhibitors diluted in kinase buffer were added to each well, followed by the addition of test compound (4× final concentration in kinase buffer) or kinase buffer (control) in an additional 25 μl volume. Finally 50 μl (100 ng) of human Cdk-4/D1 or Cdk-2/E enzyme in kinase buffer was added to each well to initiate the reaction. The reaction was incubated for 30 min at 30° C. After the reaction was complete, vacuum was applied and the plate was washed with the wash buffer (TNEN buffer) three times. The filter plate was air-dried and placed in a Multiscreen adapter plate. To each well, 30 μl Packard Microscint-O cocktail was added and the plate was covered with a Top-Seal A film. The plate was counted in a Packard Top Count Scintillation Counter for 10 min. […]

human Cdk-2/E = molecular target: T2, human Cdk-2/E (Homo sapiens, UniProt P24941); test: Cdk2/Cyclin E kinase assay; type: biochemical; details: phosphorylation of GST-Rb, 32P-ATP filter plate, 30 min at 30° C.
T2 construct: made in house; host or cells: Sf9 insect cells (baculovirus)
Source text: as §3, §4
as §5, with “Cdk2. […]” for “Cdk2.”
as §6
The Cdk 4 or Cdk 2 enzyme assay was run in 96-well format using Millipore Multiscreen filtration plates. […] The plate was counted in a Packard Top Count Scintillation Counter for 10 min. […]

Row | Structure (SMILES) | IC50 [4] | IC50 (HeLa Cervix [5]) | IC50 (H460 Lung [6]) | IC50 (PC-3 Prostate [7]) | IC50 (MDAMB-231 Breast [9]) | IC50 (MCF-7 Breast [11]) | melting point | IC50 (human Cdk-4/D1) | Ratio of IC50 Cdk2/E:Cdk4/D1 (human Cdk-4/D1) | IC50 (human Cdk-2/E) | degree of toxicity U-937 Histiocytic lymphoma (monocytes) [1] | degree of toxicity HeLa Cervix (HeLa Cervix [2]) | degree of toxicity H460 Lung (H460 Lung [3]) | degree of toxicity PC-3 Prostate (PC-3 Prostate [8]) | degree of toxicity MCF-7 Breast (MCF-7 Breast [10]) | degree of toxicity MDAMB-231 Breast (MDAMB-231 Breast [12])
1 | CN1CC[C@H](c2c(O)cc(O)c3c(=O)cc(-c4ccccc4Cl)oc23)[C@H](O)C1 (relative stereo) [Flavopiridol, cis-{2-(2-Chloro-phenyl)-5,7-dihydroxy-8-(3-hydroxy-1-methyl-piperidin-4-yl)-chromen-4-one hydrochloride}, reference compound] | 0.1 µM | 0.1 to 0.5 µM | 0.05 µM | 0.05 to 0.1 µM | 0.1 µM | 0.5 µM | – | – | – | – | ++ (50-70% toxic) | +++ (above 70% toxic) | + (30-50% toxic) | ++ (50-70% toxic) | + (30-50% toxic) | ++ (50-70% toxic)
2 | COc1ccc(Br)c(-c2cc(=O)c3c(O)cc(O)c([C@@H]4CCN(C)[C@H]4CO)c3o2)c1 (single isomer, unassigned) [Example 36 (Compound A), (+)-trans-2-(2-Bromo-5-methoxy-phenyl)-5,7-dihydroxy-8-(2-hydroxymethyl-1-methyl-pyrrolidin-3-yl)-chromen-4-one] | – | – | – | – | – | – | – | 0.08 µM | 75.0 | 6 µM | – | – | – | – | – | –
3 | CN1CC[C@@H](c2c(O)cc(O)c3c(=O)cc(-c4c(F)cccc4F)oc23)[C@@H]1CO (single isomer, unassigned) [Example 80, (+)-trans-2-(2,6-Difluoro-phenyl)-5,7-dihydroxy-8-(2-hydroxymethyl-1-methyl-pyrrolidin-3-yl)-chromen-4-one] | – | – | – | – | – | – | 242 to 244 °C | 0.28 µM | 31.2 | 8.75 µM | – | – | – | – | – | –
4 | CN1CC[C@@H](c2c(O)cc(O)c3c(=O)cc(-c4ccccc4Cl)oc23)[C@@H]1Cn1ccnc1 (racemic) [Example 113, (±)-trans-2-(2-Chloro-phenyl)-5,7-dihydroxy-8-(2-imidazol-1-ylmethyl-1-methyl-pyrrolidin-3-yl)-chromen-4-one] | – | – | – | – | – | – | 249 to 250 °C | – | – | – | – | – | – | – | – | –
5 | CN1CC[C@@H](c2c(O)cc(O)c3c(=O)cc(-c4ccccc4Cl)oc23)[C@@H]1CN (racemic) [Example 109, (±)-trans-8-(2-Aminomethyl-1-methyl-pyrrolidin-3-yl)-2-(2-chloro-phenyl)-5,7-dihydroxy-chromen-4-one] | – | – | – | – | – | – | 218 to 219 °C | – | – | – | – | – | – | – | – | –

Second part, led by results:

Row | IC50 [4] | IC50 (HeLa Cervix [5]) | IC50 (H460 Lung [6]) | IC50 (PC-3 Prostate [7]) | IC50 (MDAMB-231 Breast [9]) | IC50 (MCF-7 Breast [11]) | melting point | IC50 (human Cdk-4/D1) | Ratio of IC50 Cdk2/E:Cdk4/D1 (human Cdk-4/D1) | IC50 (human Cdk-2/E) | Structure (SMILES) | degree of toxicity U-937 Histiocytic lymphoma (monocytes) [1] | degree of toxicity HeLa Cervix (HeLa Cervix [2]) | degree of toxicity H460 Lung (H460 Lung [3]) | degree of toxicity PC-3 Prostate (PC-3 Prostate [8]) | degree of toxicity MCF-7 Breast (MCF-7 Breast [10]) | degree of toxicity MDAMB-231 Breast (MDAMB-231 Breast [12])
6 | 0.1 to 1 µM | 0.1 to 0.5 µM | 5 to 10 µM | 0.5 to 1 µM | 0.5 to 1 µM | 0.5 to 1 µM | – | – | – | – | CN1CC[C@@H](c2c(O)cc(O)c3c(=O)cc(-c4ccccc4Cl)oc23)[C@@H]1CO [Example 14A, (+)-trans-2-(2-Chloro-phenyl)-5,7-dihydroxy-8-(2-hydroxymethyl-1-methyl-pyrrolidin-3-yl)-chromen-4-one] | + (30-50% toxic) | ++ (50-70% toxic) | NT (not toxic ≦30%) | ++ (50-70% toxic) | NT (not toxic ≦30%) | NT (not toxic ≦30%)
7 | 0.1 to 1 µM | 0.1 to 1 µM | > 10 µM | 1 to 10 µM | 0.1 µM | 0.5 to 1 µM | 235 to 237 °C | – | – | – | CN1CC[C@@H](c2c(O)cc(O)c3c(=O)cc(-c4ccccc4Br)oc23)[C@@H]1CO [Example 17, (+)-trans-2-(2-Bromo-phenyl)-5,7-dihydroxy-8-(2-hydroxymethyl-1-methyl-pyrrolidin-3-yl)-chromen-4-one] | + (30-50% toxic) | + (30-50% toxic) | NT (not toxic ≦30%) | NT (not toxic ≦30%) | + (30-50% toxic) | NT (not toxic ≦30%)
8 | – | – | – | – | – | – | 125 to 127 °C | – | – | – | CN1CC[C@@H](c2c(O)cc(O)c3c(=O)cc(-c4cccnc4Cl)oc23)[C@@H]1CO [Example 90, (+)-trans-2-(2-Chloro-pyridin-3-yl)-5,7-dihydroxy-8-(2-hydroxymethyl-1-methyl-pyrrolidin-3-yl)-chromen-4-one] | – | – | – | – | – | –
